What was measured:
Assay in all cases: relative viability (nuclei count vs DMSO), 5 days (fraction); higher = more cells survive
SK-LU-1 = test system: SK-LU-1
In short: (§1)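 One day after seeding in 1536-well plates, lung cancer cell lines were dosed by pin tool. Dosing was either single-drug or a fixed anchor-drug dose plus five library-drug doses (not always all listed) in √10 steps. After 5 days, nuclei were stained in one fix-and-stain step and counted on 4× images, and relative viability is the nuclei count of treated wells over that of vehicle wells, given as the median of duplicate plates.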

NCI-H1993 = test system: NCI-H1993
In short: as §1

HCC-78 = test system: HCC-78
In short: as §1

NCI-H838 = test system: NCI-H838
In short: as §1

HCC-15 = test system: HCC-15
In short: as §1

NCI-H2405 = test system: NCI-H2405
In short: as §1

HCC-366 = test system: HCC-366
In short: as §1

NCI-H2023 = test system: NCI-H2023
In short: as §1

NCI-H1395 = test system: NCI-H1395
In short: as §1

COR-L23 = test system: COR-L23
In short: as §1

LC-2-ad = test system: LC-2-ad
In short: as §1

NCI-H1944 = test system: NCI-H1944
In short: as §1

HARA = test system: HARA
In short: as §1

NCI-H23 = test system: NCI-H23
In short: as §1

HOP-62 = test system: HOP-62
In short: as §1

NCI-H358 = test system: NCI-H358
In short: as §1

EMC-BAC-2 = test system: EMC-BAC-2
In short: as §1

NCI-H1793 = test system: NCI-H1793
In short: as §1

NCI-H2228 = test system: NCI-H2228
In short: as §1

NCI-H2126 = test system: NCI-H2126
In short: as §1

ChaGo-K-1 = test system: ChaGo-K-1
In short: as §1

**Q.** Which results are given for `CC(=O)O[C@@]12CO[C@@H]1C[C@H](O)[C@@]1(C)C(=O)[C@H](O)C3=C(C)[C@@H](OC(=O)[C@H](O)[C@@H](NC(=O)OC(C)(C)C)c4ccccc4)C[C@@](O)([C@@H](OC(=O)c4ccccc4)[C@H]21)C3(C)C` [Docetaxel] + Nc1nc2[nH]cc(CCc3ccc(C(=O)N[C@@H](CCC(=O)O)C(=O)O)cc3)c2c(=O)[nH]1 [Pemetrexed] (partner 0.2 µM)?
**A.** relative viability (SK-LU-1; first compound 0.0002 µM): 0.947; relative viability (SK-LU-1; first compound 0.000632 µM): 0.725; relative viability (SK-LU-1; first compound 0.002 µM): 0.535; relative viability (SK-LU-1; first compound 0.006325 µM): 0.337; relative viability (SK-LU-1; first compound 0.02 µM): 0.258; relative viability (NCI-H1993; first compound 0.0002 µM): 0.641; relative viability (NCI-H1993; first compound 0.000632 µM): 0.762; relative viability (NCI-H1993; first compound 0.002 µM): 0.64; relative viability (NCI-H1993; first compound 0.006325 µM): 0.444; relative viability (NCI-H1993; first compound 0.02 µM): 0.391; relative viability (HCC-78; first compound 0.0002 µM): 0.892; relative viability (HCC-78; first compound 0.000632 µM): 0.868; relative viability (HCC-78; first compound 0.002 µM): 0.88; relative viability (HCC-78; first compound 0.006325 µM): 0.889; relative viability (HCC-78; first compound 0.02 µM): 0.861; relative viability (NCI-H838; first compound 0.0002 µM): 0.247; relative viability (NCI-H838; first compound 0.000632 µM): 0.27; relative viability (NCI-H838; first compound 0.002 µM): 0.22; relative viability (NCI-H838; first compound 0.006325 µM): 0.157; relative viability (NCI-H838; first compound 0.02 µM): 0.134; relative viability (HCC-15; first compound 0.0002 µM): 0.235; relative viability (HCC-15; first compound 0.000632 µM): 0.242; relative viability (HCC-15; first compound 0.002 µM): 0.262; relative viability (HCC-15; first compound 0.006325 µM): 0.273; relative viability (HCC-15; first compound 0.02 µM): 0.181; relative viability (NCI-H2405; first compound 0.0002 µM): 1.01; relative viability (NCI-H2405; first compound 0.000632 µM): 0.754; relative viability (NCI-H2405; first compound 0.002 µM): 0.671; relative viability (NCI-H2405; first compound 0.006325 µM): 0.405; relative viability (NCI-H2405; first compound 0.02 µM): 0.389; relative viability (HCC-366; first compound 0.0002 µM): 0.162; relative viability (HCC-366; first compound 0.000632 µM): 0.16; relative viability (HCC-366; first compound 0.002 µM): 0.0677; relative viability (HCC-366; first compound 0.006325 µM): 0.0361; relative viability (HCC-366; first compound 0.02 µM): 0.0202; relative viability (NCI-H2023; first compound 0.0002 µM): 0.208; relative viability (NCI-H2023; first compound 0.000632 µM): 0.197; relative viability (NCI-H2023; first compound 0.002 µM): 0.144; relative viability (NCI-H2023; first compound 0.006325 µM): 0.124; relative viability (NCI-H2023; first compound 0.02 µM): 0.0817; relative viability (NCI-H1395; first compound 0.0002 µM): 0.814; relative viability (NCI-H1395; first compound 0.000632 µM): 0.706; relative viability (NCI-H1395; first compound 0.002 µM): 0.652; relative viability (NCI-H1395; first compound 0.006325 µM): 0.342; relative viability (NCI-H1395; first compound 0.02 µM): 0.246; relative viability (COR-L23; first compound 0.0002 µM): 0.189; relative viability (COR-L23; first compound 0.000632 µM): 0.184; relative viability (COR-L23; first compound 0.002 µM): 0.186; relative viability (COR-L23; first compound 0.006325 µM): 0.167; relative viability (LC-2-ad; first compound 0.0002 µM): 0.259; relative viability (LC-2-ad; first compound 0.000632 µM): 0.221; relative viability (LC-2-ad; first compound 0.006325 µM): 0.173; relative viability (LC-2-ad; first compound 0.02 µM): 0.181; relative viability (NCI-H1944; first compound 0.0002 µM): 0.619; relative viability (NCI-H1944; first compound 0.000632 µM): 0.568; relative viability (NCI-H1944; first compound 0.002 µM): 0.521; relative viability (NCI-H1944; first compound 0.006325 µM): 0.248; relative viability (NCI-H1944; first compound 0.02 µM): 0.118; relative viability (HARA; first compound 0.0002 µM): 0.196; relative viability (HARA; first compound 0.000632 µM): 0.247; relative viability (HARA; first compound 0.002 µM): 0.247; relative viability (HARA; first compound 0.006325 µM): 0.188; relative viability (HARA; first compound 0.02 µM): 0.142; relative viability (NCI-H23; first compound 0.0002 µM): 0.712; relative viability (NCI-H23; first compound 0.000632 µM): 0.557; relative viability (NCI-H23; first compound 0.002 µM): 0.258; relative viability (NCI-H23; first compound 0.006325 µM): 0.207; relative viability (NCI-H23; first compound 0.02 µM): 0.14; relative viability (HOP-62; first compound 0.0002 µM): 0.324; relative viability (HOP-62; first compound 0.000632 µM): 0.362; relative viability (HOP-62; first compound 0.002 µM): 0.304; relative viability (NCI-H358; first compound 0.0002 µM): 0.16; relative viability (NCI-H358; first compound 0.000632 µM): 0.172; relative viability (NCI-H358; first compound 0.002 µM): 0.164; relative viability (NCI-H358; first compound 0.006325 µM): 0.155; relative viability (NCI-H358; first compound 0.02 µM): 0.117; relative viability (EMC-BAC-2; first compound 0.0002 µM): 0.461; relative viability (EMC-BAC-2; first compound 0.000632 µM): 0.462; relative viability (EMC-BAC-2; first compound 0.002 µM): 0.464; relative viability (EMC-BAC-2; first compound 0.006325 µM): 0.361; relative viability (EMC-BAC-2; first compound 0.02 µM): 0.358; relative viability (NCI-H1793; first compound 0.0002 µM): 0.842; relative viability (NCI-H1793; first compound 0.000632 µM): 0.603; relative viability (NCI-H1793; first compound 0.002 µM): 0.251; relative viability (NCI-H1793; first compound 0.006325 µM): 0.271; relative viability (NCI-H1793; first compound 0.02 µM): 0.188; relative viability (NCI-H2228; first compound 0.0002 µM): 0.319; relative viability (NCI-H2228; first compound 0.000632 µM): 0.228; relative viability (NCI-H2228; first compound 0.002 µM): 0.154; relative viability (NCI-H2228; first compound 0.006325 µM): 0.146; relative viability (NCI-H2228; first compound 0.02 µM): 0.11; relative viability (NCI-H2126; first compound 0.0002 µM): 0.79; relative viability (NCI-H2126; first compound 0.000632 µM): 0.661; relative viability (NCI-H2126; first compound 0.002 µM): 0.456; relative viability (NCI-H2126; first compound 0.006325 µM): 0.391; relative viability (ChaGo-K-1; first compound 0.0002 µM): 0.269; relative viability (ChaGo-K-1; first compound 0.000632 µM): 0.269; relative viability (ChaGo-K-1; first compound 0.002 µM): 0.276; relative viability (ChaGo-K-1; first compound 0.006325 µM): 0.268; relative viability (ChaGo-K-1; first compound 0.02 µM): 0.181
